Laboratory results published in ChEMBL document CHEMBL4706477, “Synthesis and Biological Evaluation of Calothrixins B and their Deoxygenated Analogues” (J Med Chem, 2018).
pIC50: −log10 of the molar value. Activity calls are given as the source filed them. The calls are words filed in the database; no cut-off is given here.

Legend:
[1] = system: MCF7; test: cells; details: Homo sapiens, MCF7, 48 h
Description: Antiproliferative activity against human MCF7 cells assessed as reduction in cell viability incubated for 48 hrs by sulphorhodamine B assay

[2] = system: HCT-116; test: cells; details: Homo sapiens, HCT-116, 48 h
Description: Antiproliferative activity against human HCT-116 p53-/- cells assessed as reduction in cell viability incubated for 48 hrs by sulphorhodamine B assay

[3] = system: MDA-MB-231; test: cells; details: Homo sapiens, MDA-MB-231, 48 h
Description: Antiproliferative activity against human MDA-MB-231 cells assessed as reduction in cell viability incubated for 48 hrs by sulphorhodamine B assay

[4] = system: HeLa; test: Induction of apoptosis in human HeLa cells assessed as increase in cleaved PARP levels at 10 uM by Western blot analysis; assay type: functional, cell-based; details: time 6-48 hrs, TDE = time-dependent effect
[5] = system: HCT-116; test: Induction of cell cycle arrest in human HCT-116 cells assessed as accumulation of cells at G1 phase at 5 uM incubated for 48 hrs by propidium iodide staining based flow cytometry analysis; assay type: functional
[6] = physchem; details: octanol/water
Description: Octanol/water partition coefficient, log P of the compound

[7] = system: HCT-116; test: cells; details: Homo sapiens, HCT-116, 48 h; remark: listed apart in the source
Description: Antiproliferative activity against human HCT-116 cells assessed as reduction in cell viability incubated for 48 hrs by sulphorhodamine B assay

[8] = system: HeLa; test: cells; details: Homo sapiens, 48 h
Description: Antiproliferative activity against human HeLa cells assessed as reduction in cell viability incubated for 48 hrs by sulphorhodamine B assay

[9] = system: U-251; test: cells; details: Homo sapiens, U-251, 48 h
Description: Antiproliferative activity against human U-251 cells assessed as reduction in cell viability incubated for 48 hrs by sulphorhodamine B assay

[10] = physchem; details: octanol/buffer, pH 7.4
Description: Octanol/buffer distribution coefficient, log D of the compound at pH 7.4

[11] = system: NCI-H460; test: cells; details: Homo sapiens, NCI-H460, 48 h
Description: Antiproliferative activity against human NCI-H460 cells assessed as reduction in cell viability incubated for 48 hrs by sulphorhodamine B assay

[12] = system: HCT-116; test: Induction of cell cycle arrest in human HCT-116 cells assessed as accumulation of cells at G2/M phase at 5 uM incubated for 3 to 20 hrs in presence of 0.3 uM mitotic inhibitor nocodazole by propidium iodide staining based flow cytometry analysis; assay type: functional; details: time 3-20 hrs
[13] = system: HCT-116; test: Induction of cell cycle arrest in human HCT-116 cells assessed as accumulation of cells at G1 phase at 5 uM incubated for 3 to 20 hrs in presence of 0.3 uM mitotic inhibitor nocodazole by propidium iodide staining based flow cytometry analysis; assay type: functional; details: time 3-20 hrs
[14] = system: SiHa; test: cells; details: Homo sapiens, 48 h
Description: Antiproliferative activity against human SiHa cells assessed as reduction in cell viability incubated for 48 hrs by sulphorhodamine B assay

[15] = system: Jurkat; test: cells; details: Homo sapiens, 48 h
Description: Antiproliferative activity against human Jurkat cells assessed as reduction in cell viability incubated for 48 hrs by sulphorhodamine B assay

[16] = system: HCT-116; test: Induction of DNA damage in human HCT-116 cells assessed as tail length at 5 uM incubated for 48 hrs by alkaline Comet assay relative to control; assay type: functional, cell-based
[17] = system: Calf thymus DNA; test: Binding affinity to calf thymus DNA assessed as hypochromic effect at 3*10^-5 mol/L by double beam UV-Vis spectroscopic analysis; assay type: nucleic-acid assay; details: Bos taurus
[18] = system: Calf thymus DNA; test: Binding affinity to calf thymus DNA assessed as bathochromic shift absorbance in absorption maximum at 3*10^-5 mol/L by double beam UV-Vis spectroscopic analysis; assay type: nucleic-acid assay; details: Bos taurus
[19] = target: T1, DNA topoisomerase 2-alpha (Homo sapiens, UniProt P11388); test: Inhibition of human topoisomerase 2 assessed as inhibition of etoposide-induced DNA cleavage complex formation by measuring linear DNA formation at 30 to 50 uM incubated for 30 mins using pRYG DNA as substrate by agarose gel electrophoresis analysis; details: dose 30-50 µM
T1 sequence (P11388 whole entry): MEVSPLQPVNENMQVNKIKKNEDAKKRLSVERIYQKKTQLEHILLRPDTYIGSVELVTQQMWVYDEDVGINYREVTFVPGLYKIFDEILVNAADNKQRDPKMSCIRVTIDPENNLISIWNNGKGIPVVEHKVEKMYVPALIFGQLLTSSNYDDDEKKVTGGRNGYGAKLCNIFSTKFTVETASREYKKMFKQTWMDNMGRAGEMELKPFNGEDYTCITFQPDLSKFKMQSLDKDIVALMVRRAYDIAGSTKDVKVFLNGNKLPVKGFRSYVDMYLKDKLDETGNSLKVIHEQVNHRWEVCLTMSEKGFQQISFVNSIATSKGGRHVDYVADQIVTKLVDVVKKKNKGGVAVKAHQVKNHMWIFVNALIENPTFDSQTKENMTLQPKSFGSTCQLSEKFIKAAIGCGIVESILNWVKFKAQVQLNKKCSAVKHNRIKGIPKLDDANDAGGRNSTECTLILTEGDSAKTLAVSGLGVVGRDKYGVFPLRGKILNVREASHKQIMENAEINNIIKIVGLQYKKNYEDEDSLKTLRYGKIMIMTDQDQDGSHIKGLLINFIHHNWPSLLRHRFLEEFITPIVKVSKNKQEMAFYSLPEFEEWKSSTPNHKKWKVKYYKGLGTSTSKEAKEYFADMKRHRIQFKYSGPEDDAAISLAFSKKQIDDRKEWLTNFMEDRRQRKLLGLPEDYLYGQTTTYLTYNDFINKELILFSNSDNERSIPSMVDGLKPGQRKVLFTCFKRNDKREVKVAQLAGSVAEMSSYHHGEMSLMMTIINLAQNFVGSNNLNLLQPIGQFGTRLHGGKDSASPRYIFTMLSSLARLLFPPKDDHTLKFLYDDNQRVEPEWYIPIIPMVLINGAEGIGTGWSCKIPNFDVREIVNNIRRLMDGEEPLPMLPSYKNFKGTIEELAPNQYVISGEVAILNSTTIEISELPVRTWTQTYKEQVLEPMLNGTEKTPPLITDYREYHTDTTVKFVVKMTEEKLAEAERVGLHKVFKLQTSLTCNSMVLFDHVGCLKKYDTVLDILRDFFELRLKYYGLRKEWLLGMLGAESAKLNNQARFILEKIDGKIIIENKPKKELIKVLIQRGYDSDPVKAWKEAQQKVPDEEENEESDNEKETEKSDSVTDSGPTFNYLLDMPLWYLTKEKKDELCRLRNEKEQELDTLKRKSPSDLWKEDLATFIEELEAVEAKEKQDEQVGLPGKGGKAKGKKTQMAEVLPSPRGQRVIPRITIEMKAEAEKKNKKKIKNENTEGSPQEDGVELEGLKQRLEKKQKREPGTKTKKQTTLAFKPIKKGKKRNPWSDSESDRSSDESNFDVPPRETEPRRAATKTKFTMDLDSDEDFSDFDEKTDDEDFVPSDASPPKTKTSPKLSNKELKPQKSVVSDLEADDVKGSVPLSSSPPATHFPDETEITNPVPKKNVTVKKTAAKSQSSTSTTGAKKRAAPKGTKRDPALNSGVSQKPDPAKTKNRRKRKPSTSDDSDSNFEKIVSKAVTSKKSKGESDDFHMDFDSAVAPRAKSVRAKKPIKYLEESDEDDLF

[20] = target: T1, DNA topoisomerase 2-alpha; test: Inhibition of recombinant human topoisomerase 2 assessed as decrease in relaxation of supercoiled pBlue-Script KS(+) plasmid DNA incubated for 30 mins by ethidium bromide staining based gel electrophoresis method
[21] = target: T1, DNA topoisomerase 2-alpha; test: Inhibition of recombinant human topoisomerase 2 assessed as decrease in relaxation of supercoiled pBlue-Script KS(+) plasmid DNA at 200 uM incubated for 30 mins by ethidium bromide staining based gel electrophoresis method
[22] = system: A549; test: Antiproliferative activity against human A549 cells assessed as reduction in cell viability incubated for 48 hrs by sulphorhodamine B assay; assay type: functional
[23] = system: HEK293; test: Antiproliferative activity against human HEK293 cells assessed as reduction in cell viability incubated for 48 hrs by sulphorhodamine B assay; assay type: functional
[24] = target: T2, DNA topoisomerase 1 (Homo sapiens) (UniProt P11387); test: Inhibition of human topoisomerase 1 assessed as induction of negative supercoiled DNA using relaxed pBlue-Script KS(+) plasmid DNA as substrate measured after 15 mins by agarose gel electrophoresis analysis; details: dose 60-100 µM
T2 sequence (whole entry): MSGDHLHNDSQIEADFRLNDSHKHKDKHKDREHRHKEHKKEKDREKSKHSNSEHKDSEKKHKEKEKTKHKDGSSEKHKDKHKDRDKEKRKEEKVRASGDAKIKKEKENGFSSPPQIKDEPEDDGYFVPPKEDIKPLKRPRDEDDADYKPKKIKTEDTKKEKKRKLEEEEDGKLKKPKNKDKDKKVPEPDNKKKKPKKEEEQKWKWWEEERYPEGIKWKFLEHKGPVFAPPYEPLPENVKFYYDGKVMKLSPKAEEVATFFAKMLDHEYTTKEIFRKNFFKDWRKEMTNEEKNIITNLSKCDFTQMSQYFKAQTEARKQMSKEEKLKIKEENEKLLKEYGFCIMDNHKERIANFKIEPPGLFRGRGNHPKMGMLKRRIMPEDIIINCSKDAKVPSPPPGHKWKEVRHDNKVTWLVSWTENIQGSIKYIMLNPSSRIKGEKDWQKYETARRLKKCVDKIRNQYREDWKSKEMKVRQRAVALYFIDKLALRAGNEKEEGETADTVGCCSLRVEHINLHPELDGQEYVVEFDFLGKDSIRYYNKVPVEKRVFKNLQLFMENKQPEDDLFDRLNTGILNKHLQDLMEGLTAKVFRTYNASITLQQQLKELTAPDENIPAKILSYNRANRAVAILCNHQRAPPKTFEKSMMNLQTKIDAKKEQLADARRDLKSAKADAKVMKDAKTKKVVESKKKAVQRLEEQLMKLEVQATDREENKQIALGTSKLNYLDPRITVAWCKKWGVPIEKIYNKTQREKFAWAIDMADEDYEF

[25] = target: T1, DNA topoisomerase 2-alpha; test: Inhibition of recombinant human topoisomerase 2 assessed as decrease in relaxation of supercoiled pBlue-Script KS(+) plasmid DNA at 40 uM incubated for 30 mins by ethidium bromide staining based gel electrophoresis method relative to control
[26] = system: HCT-116; test: Anticlonogenic activity against human HCT-116 cells assessed as inhibition of colony formation at 0.1 to 5 uM incubated for 48 hrs followed by compound washout with PBS and measured after 14 days by crystal violet staining based analysis; assay type: functional, cell-based; details: dose 0.1-5 µM
[27] = system: Calf thymus DNA; test: Binding affinity to calf thymus DNA assessed as red shift absorbance measured at 258 nm at 3*10^-5 mol/L by double beam UV-Vis spectroscopic analysis; assay type: nucleic-acid assay; details: Bos taurus
[28] = system: NCI-H460; test: Induction of DNA damage in human NCI-H460 cells incubated for 48 hrs by alkaline Comet assay; assay type: functional, cell-based
[29] = system: NCI-H460; test: Induction of cell cycle arrest in human NCI-H460 cells assessed as accumulation of cells at G1 phase incubated for 48 hrs by propidium iodide staining based flow cytometry analysis; assay type: functional; details: dose 0.1-2 µM
[30] = system: NCI-H460; test: Induction of apoptosis in human NCI-H460 cells assessed as cleaved PARP levels at 1 uM incubated for 48 hrs by Western blot analysis; assay type: functional, cell-based
[31] = system: HCT-116; test: Induction of cell cycle arrest in human HCT-116 cells assessed as accumulation of cells at G2/M phase at 5 uM incubated for 48 hrs by propidium iodide staining based flow cytometry analysis; assay type: functional
[32] = system: Calf thymus DNA; test: Binding affinity to calf thymus DNA assessed as hyperchromic effect measured at 258 nm at 3*10^-5 mol/L by double beam UV-Vis spectroscopic analysis; assay type: nucleic-acid assay; details: Bos taurus
[33] = system: HCT-116; test: Induction of cell cycle arrest in human HCT-116 cells assessed as accumulation of cells at G2/M phase at 5 uM incubated for 20 hrs by propidium iodide staining based flow cytometry analysis; assay type: functional
[34] = system: NCI-H460; test: Induction of apoptosis in human NCI-H460 cells assessed as morphological changes at 0.5 uM incubated for 48 hrs by acridine orange/propidium iodide double staining based fluorescence microscopy analysis; assay type: functional, cell-based
[35] = system: Calf thymus DNA; test: Binding affinity to calf thymus DNA assessed as hyperchromic effect measured at 302 nm at 3*10^-5 mol/L by double beam UV-Vis spectroscopic analysis; assay type: nucleic-acid assay; details: Bos taurus
[36] = system: NCI-H460; test: Induction of cell death in human NCI-H460 cells at 0.1 uM incubated for 48 hrs by propidium iodide staining based flow cytometry analysis; assay type: functional

Row | GI50 [1] [µM] | GI50 [3] [µM] | logP [6] | GI50 [7] [µM] | GI50 [8] [µM] | GI50 [9] [µM] | logD [10] | GI50 [11] [µM] | GI50 [15] [µM] | inhibition [20] | GI50 [22] [µM] | Activity [24] | Compound | Activity [12] | GI50 [14] [µM] | Activity [16] | GI50 [23] [µM] | other results
1 | 0.26 | 0.16 | -1.81 | 0.65 | 0.47 | 2.25 | -2.11 | > 4 | > 4 | – | – | – | O=C1c2[nH]c3ccccc3c2C(=O)c2cnc3ccccc3c21 [CALOTHRIXIN B] | Active | 3.5 | Active | – | GI50 [2]: 2.55 µM; Activity [4]: Tde; Activity [5]: Active; Activity [13]: inactive
2 | 2.75 | 1 | – | 1.75 | 1.1 | 1.35 | – | 1.5 | – | – | – | – | CN(C)CCCNc1nc2ccccc2c2cc3[nH]c4ccccc4c3cc12 | – | 1.15 | – | – | Activity [17]: 40%; Activity [18]: 15 nm
3 | > 4 | > 4 | – | 15 | 0.36 | > 4 | – | 10.5 | > 4 | Dose-dependent effect | > 4 | Dose-dependent effect | Cc1c2cnc3ccccc3c2cc2[nH]c3ccccc3c12 | – | > 4 | – | > 4 | inhibition [19]: Active; pIC50 [20]: 4.72; IC90 [20]: 28.8 µM; inhibition [21]: 100%; inhibition [25]: 98%
4 | 0.02 | 0.95 | 1.91 | 6 | 0.02 | > 4 | 1.61 | 0.001 | > 4 | inactive | > 4 | Dose-dependent effect | Fc1ccc2c(c1)ncc1cc3c(cc12)[nH]c1ccccc13 | Active | > 4 | Active | 0.0052 | inhibition [26]: Active; Activity [27]: 14 nm; Activity [28]: Dose-dependent effect; Activity [29]: Dose-dependent effect; Activity [30]: Active; Activity [31]: Active; Activity [32]: 46%; Activity [33]: Active; Activity [34]: Active; Activity [35]: 41%; Activity [36]: Active
